Assay results published in patent US20070248701A1, “METHODS AND FORMULATIONS FOR INHIBITING NATURALLY OCCURRING PHOSPHODIESTERASE” (priority 2003, published 2007).
pIC50: −log10 of the molar value. Where two headings read alike, the source gives them in different places.

What was measured:
Phosphodiesterase PDE6 [1] = molecular target: T1, Phosphodiesterase PDE6 (Bos taurus, UniProt P11541+P23439); assay: Phosphodiesterase PDE6 enzyme assay; assay type: biochemical, bovine; conditions: reference compound tested concurrently, batch 70682; read-out: Concurrent IC50
T1 sequence (P11541 1-859): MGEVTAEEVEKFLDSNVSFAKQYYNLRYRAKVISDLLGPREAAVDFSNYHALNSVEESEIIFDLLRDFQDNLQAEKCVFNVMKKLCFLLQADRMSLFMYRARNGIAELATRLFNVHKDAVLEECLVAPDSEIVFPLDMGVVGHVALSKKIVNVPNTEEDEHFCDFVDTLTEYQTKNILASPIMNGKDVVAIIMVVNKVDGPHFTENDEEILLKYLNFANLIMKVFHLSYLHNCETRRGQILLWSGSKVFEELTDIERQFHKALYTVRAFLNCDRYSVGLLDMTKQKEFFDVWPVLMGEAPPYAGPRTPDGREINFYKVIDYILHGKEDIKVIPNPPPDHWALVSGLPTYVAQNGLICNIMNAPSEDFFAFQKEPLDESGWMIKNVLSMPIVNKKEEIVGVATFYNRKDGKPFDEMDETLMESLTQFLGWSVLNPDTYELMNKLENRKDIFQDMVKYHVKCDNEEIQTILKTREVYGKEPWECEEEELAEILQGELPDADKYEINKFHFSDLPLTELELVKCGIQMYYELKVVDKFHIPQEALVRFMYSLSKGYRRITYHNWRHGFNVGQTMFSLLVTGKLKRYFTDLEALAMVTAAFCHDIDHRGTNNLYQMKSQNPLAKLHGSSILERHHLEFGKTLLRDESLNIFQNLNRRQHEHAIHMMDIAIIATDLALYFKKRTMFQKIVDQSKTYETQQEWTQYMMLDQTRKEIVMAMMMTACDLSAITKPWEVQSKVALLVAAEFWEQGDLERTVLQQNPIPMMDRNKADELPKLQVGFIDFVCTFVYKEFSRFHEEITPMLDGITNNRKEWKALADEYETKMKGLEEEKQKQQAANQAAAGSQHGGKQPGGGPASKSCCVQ
T1 sequence (P23439 1-853): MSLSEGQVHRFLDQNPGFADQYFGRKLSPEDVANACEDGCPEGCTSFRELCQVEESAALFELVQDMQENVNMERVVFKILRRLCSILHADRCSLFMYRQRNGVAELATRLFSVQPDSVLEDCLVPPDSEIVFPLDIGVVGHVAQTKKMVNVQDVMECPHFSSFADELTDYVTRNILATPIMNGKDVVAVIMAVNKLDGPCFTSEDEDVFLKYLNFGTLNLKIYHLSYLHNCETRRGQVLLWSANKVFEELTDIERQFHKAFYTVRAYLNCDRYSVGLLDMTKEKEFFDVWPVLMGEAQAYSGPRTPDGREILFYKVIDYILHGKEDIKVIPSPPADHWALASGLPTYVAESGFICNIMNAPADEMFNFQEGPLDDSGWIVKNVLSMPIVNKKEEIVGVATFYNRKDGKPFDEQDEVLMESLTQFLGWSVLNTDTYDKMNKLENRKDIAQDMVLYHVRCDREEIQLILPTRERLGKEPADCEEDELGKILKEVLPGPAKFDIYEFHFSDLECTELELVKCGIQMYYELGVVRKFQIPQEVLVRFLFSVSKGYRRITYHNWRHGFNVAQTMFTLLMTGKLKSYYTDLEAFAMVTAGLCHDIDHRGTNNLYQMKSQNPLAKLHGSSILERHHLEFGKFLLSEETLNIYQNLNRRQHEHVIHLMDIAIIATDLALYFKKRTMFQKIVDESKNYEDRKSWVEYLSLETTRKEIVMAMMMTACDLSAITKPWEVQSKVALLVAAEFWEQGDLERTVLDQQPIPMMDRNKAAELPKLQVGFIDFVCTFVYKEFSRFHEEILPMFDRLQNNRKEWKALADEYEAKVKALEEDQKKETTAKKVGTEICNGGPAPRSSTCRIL
Description: The test material (TNPJCon) was tested using an Enzyme assays that involve PDE enzymes from both bovine and human origin known as PDE1, PDE2, PDE3, PDE4, PDE6. All of the enzyme assays were run on a 1% concentration of TNPJCon. Please note that the IC50 was not determined.

Phosphodiesterase PDE6 [2] = molecular target: T1, Phosphodiesterase PDE6; conditions: reference compound, historical value; cited from earlier work
Phosphodiesterase PDE3 [3] = molecular target: T2, Phosphodiesterase PDE3 (Homo sapiens, UniProt Q14432); assay: Phosphodiesterase PDE3 enzyme assay; assay type: biochemical; conditions: reference compound tested concurrently, batch 70679; read-out: Concurrent IC50
Phosphodiesterase PDE2 [4] = molecular target: T3, Phosphodiesterase PDE2 (Homo sapiens, UniProt O00408); assay: Phosphodiesterase PDE2 enzyme assay; assay type: biochemical; conditions: reference compound tested concurrently, batch 70678; read-out: Concurrent IC50
Phosphodiesterase PDE5 [5] = molecular target: T4, Phosphodiesterase PDE5 (Homo sapiens, UniProt O76074); assay: Phosphodiesterase PDE5 enzyme assay; assay type: biochemical; conditions: reference compound tested concurrently, batch 70681; read-out: Concurrent IC50
Phosphodiesterase PDE1 [6] = conditions: reference compound, historical value; cited from earlier work
Phosphodiesterase PDE4 [7] = conditions: reference compound, historical value; cited from earlier work
Phosphodiesterase PDE5 [8] = molecular target: T4, Phosphodiesterase PDE5; conditions: reference compound, historical value; cited from earlier work
Phosphodiesterase PDE4 [9] = assay: Phosphodiesterase PDE4 enzyme assay; assay type: biochemical, human; conditions: reference compound tested concurrently, batch 70680; read-out: Concurrent IC50
Phosphodiesterase PDE3 [10] = molecular target: T2, Phosphodiesterase PDE3; conditions: reference compound, historical value; cited from earlier work
Phosphodiesterase PDE1 [11] = assay: Phosphodiesterase PDE1 enzyme assay; assay type: biochemical, bovine; conditions: reference compound tested concurrently, batch 70431; read-out: Concurrent IC50
Phosphodiesterase PDE2 [12] = molecular target: T3, Phosphodiesterase PDE2; conditions: reference compound, historical value; cited from earlier work

T3 sequence (O00408 whole entry): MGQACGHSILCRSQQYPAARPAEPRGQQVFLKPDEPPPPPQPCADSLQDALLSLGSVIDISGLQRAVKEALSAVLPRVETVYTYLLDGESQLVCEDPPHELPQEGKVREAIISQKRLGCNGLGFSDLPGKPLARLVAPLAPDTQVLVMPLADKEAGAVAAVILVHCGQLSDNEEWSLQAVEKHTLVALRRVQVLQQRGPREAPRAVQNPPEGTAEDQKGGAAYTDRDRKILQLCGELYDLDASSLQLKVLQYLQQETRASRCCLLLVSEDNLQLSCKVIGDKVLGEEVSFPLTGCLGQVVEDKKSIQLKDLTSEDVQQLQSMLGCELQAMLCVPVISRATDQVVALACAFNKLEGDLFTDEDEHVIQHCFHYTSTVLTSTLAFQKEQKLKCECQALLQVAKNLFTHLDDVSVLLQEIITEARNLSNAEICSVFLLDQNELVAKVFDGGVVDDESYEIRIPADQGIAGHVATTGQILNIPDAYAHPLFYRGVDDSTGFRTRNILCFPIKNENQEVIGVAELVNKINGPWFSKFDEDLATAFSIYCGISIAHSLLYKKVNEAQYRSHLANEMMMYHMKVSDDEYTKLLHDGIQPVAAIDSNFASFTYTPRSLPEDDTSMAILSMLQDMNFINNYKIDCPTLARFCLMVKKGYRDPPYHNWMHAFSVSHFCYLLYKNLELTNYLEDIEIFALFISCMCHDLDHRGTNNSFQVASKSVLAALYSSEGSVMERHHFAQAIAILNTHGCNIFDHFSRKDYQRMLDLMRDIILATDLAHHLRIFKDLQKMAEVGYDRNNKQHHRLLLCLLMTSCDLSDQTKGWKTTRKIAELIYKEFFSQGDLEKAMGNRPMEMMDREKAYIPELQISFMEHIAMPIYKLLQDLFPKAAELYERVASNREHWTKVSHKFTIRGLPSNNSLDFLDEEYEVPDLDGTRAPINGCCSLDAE
T2 sequence (Q14432 whole entry): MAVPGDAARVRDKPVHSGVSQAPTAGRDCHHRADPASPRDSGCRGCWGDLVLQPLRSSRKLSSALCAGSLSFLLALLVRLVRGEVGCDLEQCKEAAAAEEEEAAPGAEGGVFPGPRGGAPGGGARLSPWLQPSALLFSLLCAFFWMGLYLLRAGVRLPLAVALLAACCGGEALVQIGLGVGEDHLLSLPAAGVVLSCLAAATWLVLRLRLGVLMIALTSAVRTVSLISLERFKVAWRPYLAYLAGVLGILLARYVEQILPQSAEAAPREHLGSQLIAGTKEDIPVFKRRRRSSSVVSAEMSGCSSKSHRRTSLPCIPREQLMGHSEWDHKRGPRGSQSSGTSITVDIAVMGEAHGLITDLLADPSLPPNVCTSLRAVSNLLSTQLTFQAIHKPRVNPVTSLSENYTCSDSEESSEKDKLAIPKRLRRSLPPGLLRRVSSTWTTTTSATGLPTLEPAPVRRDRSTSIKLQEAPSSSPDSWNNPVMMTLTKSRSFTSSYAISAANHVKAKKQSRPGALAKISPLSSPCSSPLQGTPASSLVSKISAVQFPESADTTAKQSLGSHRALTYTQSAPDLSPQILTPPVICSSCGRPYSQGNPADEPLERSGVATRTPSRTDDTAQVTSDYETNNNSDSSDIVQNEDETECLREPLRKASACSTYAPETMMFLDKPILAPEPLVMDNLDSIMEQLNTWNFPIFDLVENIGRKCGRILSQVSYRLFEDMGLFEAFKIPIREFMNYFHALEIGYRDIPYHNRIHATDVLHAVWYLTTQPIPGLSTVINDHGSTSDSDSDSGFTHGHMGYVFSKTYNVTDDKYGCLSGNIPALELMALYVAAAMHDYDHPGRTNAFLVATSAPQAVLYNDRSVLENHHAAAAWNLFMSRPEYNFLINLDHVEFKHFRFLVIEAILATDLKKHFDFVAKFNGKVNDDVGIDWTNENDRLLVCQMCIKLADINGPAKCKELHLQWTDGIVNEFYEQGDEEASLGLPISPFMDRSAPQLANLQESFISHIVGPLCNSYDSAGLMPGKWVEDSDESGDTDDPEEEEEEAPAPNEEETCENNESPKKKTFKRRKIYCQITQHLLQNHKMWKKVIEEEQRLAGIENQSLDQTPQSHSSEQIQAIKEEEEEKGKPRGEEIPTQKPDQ

Row | SMILES | pIC50 (Phosphodiesterase PDE6 [1]) | pIC50 (Phosphodiesterase PDE6 [2]) | pIC50 (Phosphodiesterase PDE3 [3]) | pIC50 (Phosphodiesterase PDE2 [4]) | pIC50 (Phosphodiesterase PDE5 [5]) | pIC50 (Phosphodiesterase PDE1 [6]) | pIC50 (Phosphodiesterase PDE4 [7]) | pIC50 (Phosphodiesterase PDE5 [8]) | pIC50 (Phosphodiesterase PDE4 [9]) | pIC50 (Phosphodiesterase PDE3 [10]) | pIC50 (Phosphodiesterase PDE1 [11]) | pIC50 (Phosphodiesterase PDE2 [12])
1 | CCCOc1ccccc1-c1nc2nn[nH]c2c(=O)[nH]1 [Zaprinast] | 6.55 | 6.66 |  |  |  |  |  |  |  |  |  | 
2 | CC(C)Cn1c(=O)n(C)c(=O)c2[nH]cnc21 [IBMX] |  |  | 4.68 | 4.09 | 4.18 | 5.96 | 5.19 | 4.20 | 4.51 | 5.34 | 5.42 | 4.52
